Data from patent publication US20250049922A1, “PHARMACEUTICAL COMPOSITION COMPRISING P-BORONOPHENYLALANINE” (priority 2021, published 2025).

Experiment: Solubilization of BPA in aqueous solutions, visual inspection of dissolution
Assay type: physicochemical
Conditions: RT, after 2 hours
Method: BPA (L-p-boronophenylalanine, Katchem, Praha, Czech Republic) was weighed to a set of test tubes, 15 mg each (72 μmol). At room temperature (RT), 0.5 ml each of various aqueous solutions as listed below, were added into parallel test tubes and mixed vigorously. After 2 hours, the results of visual inspection of BPA dissolution and pH were as follows: […]

## N[C@@H](Cc1ccc(B(O)O)cc1)C(=O)O [BPA, L-p-boronophenylalanine]
15 mg BPA in 0.5 ml 0.12 M L-histidine (neutral pH)
  visual inspection of BPA dissolution: no dissolution
15 mg BPA in 0.5 ml 0.5 M L-arginine (pH over 11)
  visual inspection of BPA dissolution: partial dissolution
15 mg BPA in 0.5 ml 0.5 M L-serine (neutral pH)
  visual inspection of BPA dissolution: no dissolution
15 mg BPA in 0.5 ml 0.5 M NaOH
  visual inspection of BPA dissolution: complete dissolution
15 mg BPA in 0.5 ml 0.5 M Tris (Trizma base, pH over 10)
  visual inspection of BPA dissolution: complete dissolution
15 mg BPA in 0.5 ml 0.5 M Tris-HCl (pH 8)
  visual inspection of BPA dissolution: partial dissolution
15 mg BPA in 0.5 ml 0.5 M propylene glycol
  visual inspection of BPA dissolution: no dissolution
15 mg BPA in 0.5 ml 0.5 M sodium-potassium tartrate (neutral pH)
  visual inspection of BPA dissolution: partial dissolution
15 mg BPA in 0.5 ml 96% ethanol (v/v)
  visual inspection of BPA dissolution: no dissolution
15 mg BPA in 0.5 ml deionized water
  visual inspection of BPA dissolution: no dissolution
15 mg BPA, 0.25 ml 0.5 M NaOH followed by 0.5 ml 0.5 M L-serine
  visual inspection of BPA dissolution: complete dissolution
